From article PMC11678245, “The Molecular Basis of the Intrinsic and Acquired Resistance to Azole Antifungals in Aspergillus fumigatus” (Journal of Fungi, 2024) come the findings set out here.

For orientation: MIC80 means the lowest concentration that inhibits either 80% of growth or 80% of the strains tested, depending on the study.

Test [1] has as its system S. cerevisiae Y2300 ADΔΔ CYP51 (ScCYP51). The experiment in a line: MIC80 susceptibility, strain Y2300 (Table S1). Type of test: cell-based, Saccharomyces cerevisiae. Conditions: Table S1; strain Y2300 ADΔΔ CYP51. As to the method: (§1) The susceptibilities of S. cerevisiae strains to antifungal drugs were determined as minimum growth inhibitory concentration (MIC) values in 200 μL SD pH 6.8 [24]. Serial 2-fold dilutions of 100 μL of azole or control drugs in SD pH 6.8 were prepared in a 96-well microtiter plate. A portion of a 2 mL SD pH 6.8 overnight culture of the test strain was inoculated into 3 mL fresh SD pH 6.8 and incubated for 4 to 6 h at 30 °C to generate logarithmic-phase cells. These cells were then diluted with fresh SD pH 6.8 to OD600nm = 0.01 (3 × 10^4 CFU), and 100 μL of this cell suspension was added to microtiter plate wells. Cell growth after 48 h incubation at 30 °C with shaking at 200 rpm was determined at 600 nm using a BioTek™ Synergy™ 2 multi-Mode microplate reader controlled using Gen5™ Data Analysis Software version 3.16.10 (BioTek Instruments, Winooski, VT, USA). MIC80 values (80% growth inhibition in the presence of the test drug compared with the untreated control) for each yeast construct were determined as technical triplicates repeated three times for three separate clones. […]
(§2) Table S1. Azole susceptibilities of ScCYP51 and ScCYP51 T322I expressed
(§3) Data for each strain was obtained for […] in three biological replicates.

Test [2] concerns S. cerevisiae Y2305 ADΔΔ CYP51 T322I (ScCYP51 T322I). The experiment in a line: MIC80 susceptibility, strain Y2305 (Table S1). The format is cell-based, Saccharomyces cerevisiae. As to the method:
as §1, §2, §3

In test [3] the test system is S. cerevisiae strain ADΔΔ (native ScCYP51). The experiment in a line: MIC80 susceptibility, host strain ADΔΔ. Conditions: Saccharomyces cerevisiae, Table 2, SD pH 6.8, 48 h, 30 °C. The format is cell-based. As to the method: (§4) The susceptibilities of S. cerevisiae strains to antifungal drugs were determined as minimum growth inhibitory concentration (MIC) values in 200 μL SD pH 6.8 [24]. Serial 2-fold dilutions of 100 μL of azole or control drugs in SD pH 6.8 were prepared in a 96-well microtiter plate. A portion of a 2 mL SD pH 6.8 overnight culture of the test strain was inoculated into 3 mL fresh SD pH 6.8 and incubated for 4 to 6 h at 30 °C to generate logarithmic-phase cells. These cells were then diluted with fresh SD pH 6.8 to OD600nm = 0.01 (3 × 10^4 CFU), and 100 μL of this cell suspension was added to microtiter plate wells. Cell growth after 48 h incubation at 30 °C with shaking at 200 rpm was determined at 600 nm using a BioTek™ Synergy™ 2 multi-Mode microplate reader controlled using Gen5™ Data Analysis Software version 3.16.10 (BioTek Instruments, Winooski, VT, USA). MIC80 values (80% growth inhibition in the presence of the test drug compared with the untreated control) for each yeast construct were determined as technical triplicates repeated three times for three separate clones.

Test [4] concerns S. cerevisiae strain A (AfCyp51A-6×His, native ScCyp51 retained). The experiment in a line: MIC80 susceptibility, strain A. The format is cell-based. As to conditions: Saccharomyces cerevisiae, Table 2, SD pH 6.8, 48 h, 30 °C. On the procedure:
as §4

For test [5], the system named is S. cerevisiae strain AR (AfCyp51A-6×His, AfCprA2-6×His). The experiment in a line: MIC80 susceptibility, strain AR. Type of test: cell-based, Saccharomyces cerevisiae. Conditions: Saccharomyces cerevisiae; Table 2; strain AR; SD pH 6.8, 48 h, 30 °C; ± SD; read-out: MIC80. On the procedure:
as §4

For test [6], the system named is S. cerevisiae strain ARE Y121F (AfCyp51A-6×His Y121F, AfCprA2, AfErg6-FLAG). In words: MIC80 susceptibility, strain Y121F. The format is cell-based, Saccharomyces cerevisiae. As to conditions: Saccharomyces cerevisiae; Table 2; strain Y121F; SD pH 6.8, 48 h, 30 °C; ± SD; read-out: MIC80. As to the method: as §4
Test [7] deals with S. cerevisiae strain ARE T289A (AfCyp51A-6×His T289A, AfCprA2, AfErg6-FLAG). The experiment in a line: MIC80 susceptibility, strain T289A. The format is cell-based, Saccharomyces cerevisiae. As to conditions: Saccharomyces cerevisiae, 48 h, pH 6.8, Table 2; strain T289A; SD pH 6.8, 48 h, 30 °C; ± SD; read-out: MIC80. On the procedure: as §4
For test [8], the system named is S. cerevisiae strain ARE Y121F T289A (AfCyp51A-6×His Y121F T289A, AfCprA2, AfErg6-FLAG). In words: MIC80 susceptibility, strain Y121F T289A. The format is cell-based, Saccharomyces cerevisiae. As to conditions: Saccharomyces cerevisiae; Table 2; strain Y121F T289A; SD pH 6.8, 48 h, 30 °C; ± SD; read-out: MIC80. As to the method: as §4
Test [9] concerns S. cerevisiae strain ARE I301T (AfCyp51A-6×His I301T, AfCprA2, AfErg6-FLAG). The experiment in a line: MIC80 susceptibility, strain I301T. Type of test: cell-based, Saccharomyces cerevisiae. Conditions: Saccharomyces cerevisiae, 48 h, pH 6.8, Table 2; strain I301T; SD pH 6.8, 48 h, 30 °C; ± SD; read-out: MIC80. On the procedure: as §4
The test system of test [10] is S. cerevisiae strain B (AfCyp51B-6×His, native ScCyp51 retained). In words: MIC80 susceptibility, strain B. Type of test: cell-based. As to conditions: Saccharomyces cerevisiae, Table 2, SD pH 6.8, 48 h, 30 °C. As to the method:
as §4

For test [11], the system named is S. cerevisiae strain BR (AfCyp51B-6×His, AfCprA2-6×His). The experiment in a line: MIC80 susceptibility, strain BR. Conditions: Saccharomyces cerevisiae; Table 2; strain BR; SD pH 6.8, 48 h, 30 °C; ± SD; read-out: MIC80. The format is cell-based. On the procedure:
as §4

The test system of test [12] is S. cerevisiae strain BRE (AfCyp51B-6×His, AfCprA2, AfErg6-FLAG). The experiment in a line: MIC80 susceptibility, strain BRE. The format is cell-based, Saccharomyces cerevisiae. As to conditions: Saccharomyces cerevisiae; Table 2; strain BRE; SD pH 6.8, 48 h, 30 °C; ± SD; read-out: MIC80. On the procedure:
as §4

Molecules are shown by their SMILES. Numbered stars: 1 amine (or outer) side, 2 acyl side, 3 side chain; on linkers, the order of the positions; unused ones are H or OH. Bridge positions count the residues as written; N and C are the ends. Square brackets hold non-standard residues; d marks the D form. Peptide text beside a SMILES is read from it. * marks the point of attachment. hTyr(3S-OH,4S-OH,3'-OSO3H) = N[C@H](C(=O)O)[C@H](O)[C@@H](O)c1ccc(O)c(OS(=O)(=O)O)c1; Orn(4R-OH,5R-OH) = O=C([C@H](C[C@@H](O)[C@@H](O)N[*:3])N[*:1])[*:2]; Pro(3S-OH,4S-Me) = C[C@H]1CN[C@H](C(=O)O)[C@H]1O; X1 = CCCCCOc1ccc(-c2cc(-c3ccc(C(=O)*)cc3)no2)cc1; Gln(3R-OH) = NC(=O)C[C@@H](O)[C@H](N)C(=O)O; Hyp = O=C(O)[C@@H]1C[C@@H](O)CN1

For the compound `CCC(C)n1ncn(-c2ccc(N3CCN(c4ccc(OCC5COC(Cn6cncn6)(c6ccc(Cl)cc6Cl)O5)cc4)CC3)cc2)c1=O` (stereo not drawn) [ITC], the values for the MIC80 in test [1] and in test [2] were 0.15 ± 0.01 µM and 0.13 ± 0.01 µM, respectively.

`CCCCCOc1ccc(-c2cc(-c3ccc(C(=O)N[C@H]4C[C@@H](O)[C@@H](O)NC(=O)[C@@H]5[C@@H](O)[C@@H](C)CN5C(=O)[C@H]([C@H](O)CC(N)=O)NC(=O)[C@H]([C@H](O)[C@@H](O)c5ccc(O)c(OS(=O)(=O)O)c5)NC(=O)[C@@H]5C[C@@H](O)CN5C(=O)[C@H]([C@@H](C)O)NC4=O)cc3)no2)cc1` [MCF, Micafungin] (X1-[Orn(4R-OH,5R-OH)]T[Hyp][hTyr(3S-OH,4S-OH,3'-OSO3H)][Gln(3R-OH)][Pro(3S-OH,4S-Me)]; lactam 1-C): the MIC80 in test [3] worked out at 0.22 ± 0.02 µM; in test [4], 0.19 ± 0.03 µM; in test [5], 0.17 ± 0.03 µM; in test [6], 0.24 ± 0.02 µM; in [7], 0.27 µM; in [8], 0.21 ± 0.01 µM. Besides, the MIC80 is 0.28 ± 0.01 µM in test [9], 0.18 ± 0.02 µM in [10], 0.17 ± 0.03 µM in test [11] and 0.14 ± 0.01 µM in test [12].
